Data on two compounds can be found in PubChem BioAssay AID2337 (Sanford-Burnham Center for Chemical Genomics, 2010).

SMILES strings stand for the structures.

In this assay the test system is TNFa-induced NF-kB reporter cells, inhibition. The experiment in a line: TNFa-triggered NF-kB activation inhibitors, SAR follow-up, cell-based, revised (AID 2337).

The term IC50 denotes the midpoint of a concentration-inhibition curve.

Regarding `O=C(Nc1nc2c(F)cc(F)cc2s1)c1ccc([N+](=O)[O-])o1`, the half-maximal inhibitory concentration (IC50) is 19.7 µM. Regarding `CC1Sc2ccc(S(=O)(=O)N3CCC(C(=O)Nc4ccc(Cl)cc4)CC3)cc2NC1=O` (configuration not stated), the concentration for half-maximal inhibition (IC50) is 3.15 µM.
